Source: ChEMBL document CHEMBL4325894, “An update on sphingosine-1-phosphate receptor 1 modulators” (Bioorg Med Chem Lett, 2018)
pEC50: −log10 of the molar value. Values belong to the molecule of their own block, whether it stands above or below them.

Key:
IEC-6 [1] = assay: Inhibition of apoptosis in rat IEC-6 cells assessed as decrease in CPT-induced DNA fragmentation relative to control; type: functional
Homo sapiens [2] = assay: Immunosuppressive activity in human assessed as decrease in peripheral blood lymphocyte count at 30 mg/kg, po bid relative to control; type: functional; design: scale not given: the % may be the effect or the level left
Homo sapiens [3] = assay: Decrease in naive T cells in human at 10 mg dosed daily for 28 days measured within 4 to 6 hrs post dose relative to control; type: functional; design: scale not given: the % may be the effect or the level left
Homo sapiens [4] = assay: In vivo modulatory activity at S1P1 receptor in SPMS patient assessed as reduction in newly enlarge T2 lesion at 1.25 to 2 mg, po administered as daily dose relative to control; type: functional; design: scale not given: the % may be the effect or the level left
[5] = Half life in human plasma; type: ADME, cell-free
Homo sapiens [6] = assay: Decrease in CD4+ T lymphocytes in human at 10 mg dosed daily for 28 days measured within 4 to 6 hrs post dose relative to control; type: functional; design: scale not given: the % may be the effect or the level left
Homo sapiens [7] = assay: Decrease in B lymphocytes in human at 10 mg dosed daily for 28 days measured within 4 to 6 hrs post dose relative to control; type: functional; design: scale not given: the % may be the effect or the level left
[8] = Half life in human; type: ADME
[9] = Half life in human at 0.5 mg, po administered as single dose measured on day 14 by LC-MS/MS analysis; type: ADME, organism-based; details: in vivo
IEC-6 [10] = assay: Inhibition of apoptosis in rat IEC-6 cells assessed as decrease in CPT-induced DNA fragmentation; type: functional, cell-based
Homo sapiens [11] = assay: Immunosuppressive activity in human assessed as decrease in peripheral blood lymphocyte count at 0.1 mg/kg, po qd relative to control; type: functional; design: scale not given: the % may be the effect or the level left
Homo sapiens [12] = species on record: Homo sapiens; assay: Immunosuppressive activity in human assessed as decrease in peripheral blood lymphocytes at 1 mg measured over 2 days relative to control; type: functional; design: scale not given: the % may be the effect or the level left
Homo sapiens [13] = assay: Immunosuppressive activity in po dosed human assessed as decrease in peripheral blood lymphocyte count measured after 24 hrs; type: functional
Homo sapiens [14] = assay: Immunosuppressive activity in po dosed human assessed as decrease in peripheral blood lymphocyte count measured after 21 days of continuous treatment; type: functional; details: 504 h
Homo sapiens [15] = assay: Immunosuppressive activity in RRMS patient assessed as decrease in peripheral blood lymphocytes at 20 to 40 mg, po administered as daily dose measured after 8 days relative to control; design: scale not given: the % may be the effect or the level left
Mus musculus [16] = assay: Immunosuppressive activity in ip dosed C57BL6 mouse assessed as decrease in B220+ B lymphocyte count after 5 hrs by FACS analysis; type: functional
Mus musculus [17] = assay: Immunosuppressive activity in C57BL6 mouse assessed as decrease in B220+ B lymphocyte count at 10 mg/kg, ip after 5 hrs by FACS analysis relative to control; type: functional; design: scale not given: the % may be the effect or the level left
Mus musculus [18] = assay: Immunosuppressive activity in ip dosed C57BL6 mouse assessed as decrease in CD8+ T lymphocyte count after 5 hrs by FACS analysis; type: functional
Homo sapiens [19] = species on record: Homo sapiens; assay: Selectivity for S1P1 (unknown origin) over S1P5 (unknown origin)
Mus musculus [20] = assay: Immunosuppressive activity in C57BL6 mouse assessed as decrease in CD4+ T lymphocyte count at 10 mg/kg, ip after 5 hrs by FACS analysis relative to control; type: functional; design: scale not given: the % may be the effect or the level left
Mus musculus [21] = assay: Immunosuppressive activity in C57BL6 mouse assessed as decrease in CD8+ T lymphocyte count at 10 mg/kg, ip after 5 hrs by FACS analysis relative to control; type: functional; design: scale not given: the % may be the effect or the level left
Mus musculus [22] = assay: Immunosuppressive activity in ip dosed C57BL6 mouse assessed as decrease in CD4+ T lymphocyte count after 5 hrs by FACS analysis; type: functional
[23] = molecular target: T1, Sphingosine 1-phosphate receptor 1 (Homo sapiens, UniProt P21453); assay: Activation of human recombinant S1P1 expressed in CHO cell membranes after 120 mins by GTP-gamma-35S-binding assay
T1 sequence (P21453 whole entry): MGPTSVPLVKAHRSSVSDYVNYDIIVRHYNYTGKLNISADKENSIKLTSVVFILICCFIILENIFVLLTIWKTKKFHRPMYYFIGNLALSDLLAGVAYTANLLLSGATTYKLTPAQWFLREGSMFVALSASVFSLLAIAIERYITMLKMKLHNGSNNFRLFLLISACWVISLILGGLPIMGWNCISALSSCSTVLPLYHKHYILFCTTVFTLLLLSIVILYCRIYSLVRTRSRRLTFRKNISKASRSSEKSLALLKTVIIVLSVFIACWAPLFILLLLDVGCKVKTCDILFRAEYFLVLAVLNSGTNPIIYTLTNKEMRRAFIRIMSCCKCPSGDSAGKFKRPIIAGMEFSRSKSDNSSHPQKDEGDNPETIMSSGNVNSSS

[24] = molecular target: T1, Sphingosine 1-phosphate receptor 1; assay: Modulation of S1P1 receptor internalization in HCtAEC assessed as S1P1 expression at 100 nM after 1 hr by FACS analysis relative to control
[25] = molecular target: T1, Sphingosine 1-phosphate receptor 1; assay: Modulation of S1P1 receptor internalization in HCtAEC assessed as S1P1 expression at 1000 nM after 1 hr by FACS analysis relative to control

Compound: CCCCCCCCc1ccc(CC[C@](N)(/C=C/P(=O)(O)O)CO)cc1
- inhibition (INH) (IEC-6 [1]): 21%

Compound: Cc1cc([C@@H](C)Nc2cccc(-c3cc(C)c(C(=O)N[C@@H](C)C(=O)O)c(C)c3)c2)ccc1Cl
- Activity (Homo sapiens [2]): 75 - 85%

Compound: CCCCCCCCc1ccc(CC[C@@](N)(CO)CCP(=O)(O)O)cc1
- pEC50 (IEC-6 [10]): 7.12
- inhibition (INH) (IEC-6 [1]): 50%

Compound: CCCCCCCCc1ccc(CCC(N)(CO)CO)cc1 [FINGOLIMOD]
- Activity (Homo sapiens [11]): 80 - 86%
- half-life [8]: 168 h
- Activity (Homo sapiens [12]): 38%
- ED50 (Homo sapiens [13]): 0.041 mg/kg
- ED50 (Homo sapiens [14]): 0.02 mg/kg

Compound: CCC/N=C1/S/C(=C\c2ccc(OC[C@@H](O)CO)c(Cl)c2)C(=O)N1c1ccccc1C
- Activity (Homo sapiens [15]): 62%

Compound: O=C(O)CCNCc1ccc2sc(-c3ccc(-c4ccccc4)c(C(F)(F)F)c3)cc2c1
- pEC50 [23]: 8.92

More lines, main results first:

- half-life [5]: 56.4 to 216 h
Compound: CCc1cc(/C(C)=N/OCc2ccc(C3CCCCC3)c(C(F)(F)F)c2)ccc1CN1CC(C(=O)O)C1 [SIPONIMOD]
- Activity (Homo sapiens [3]): 88%
- Activity (Homo sapiens [4]): <=80%
- Activity (Homo sapiens [6]): 88%
- Activity (Homo sapiens [7]): 88%

- half-life [8]: 19 h
Compound: CC(C)Oc1ccc(-c2nc(-c3cccc4c3CC[C@@H]4NCCO)no2)cc1C#N [OZANIMOD]

- half-life [9]: 81.9 to 89 h
Compound: CCCc1ccc(COc2ccc3c(c2)CCC(CN2CC(C(=O)O)C2)=C3C)c(OC)c1

- Selectivity Index (Homo sapiens [19]): 10000
Compound: CCOc1ccc(-c2nc(-c3cccc4c3CCC4NCCO)no2)cc1OCC (centres undefined)
- ED50 (Mus musculus [16]): 1 mg/kg
- Activity (Mus musculus [17]): 63%
- ED50 (Mus musculus [18]): 2 mg/kg
- Activity (Mus musculus [20]): 83%
- Activity (Mus musculus [21]): 84%
- ED50 (Mus musculus [22]): 0.5 mg/kg

- Activity [24]: 86%
- Activity [25]: 23%
Compound: C[C@H](Oc1ccc(-c2nc(-c3ccc4[nH]cnc4c3)no2)cc1C(F)(F)F)C(F)(F)F [ASP-4058]
- ED50 (Homo sapiens [13]): 0.1 mg/kg
- ED50 (Homo sapiens [14]): 0.023 mg/kg
